Data on 29 compounds can be found in patent US6130220A, “Sulfamide-metalloprotease inhibitors” (Syntex (USA) Inc., priority 1999, dated 2000).

The inhibition is the share of the control response that was lost under treatment. In general, IC50 refers to the point on the concentration scale where inhibition reaches its midpoint. Read a low IC50 as inhibition by little substance.

For one assay, the system named is TNF-α. Kind of assay: Inhibition of LPS induced TNF-α production in mice in vivo. Conditions: s.c. compound, LPS 50 μg/mouse i.p. 1 h later, blood after 1.5 h. The method, then:
The activity of compounds of this invention in inhibiting the TNF-α release was determined, using a minor modification of the methods described in Zanetti, G.; Heumann, D., et. al., "Cytokine production after intravenous or peritoneal Gram-negative bacterial challenge in mice" J. Immunol., 148, 1890, (1992) and Sekut, L., Menius, J. A., et. al., "Evaluation if the significance of elevated levels of systemic and localized tumor necrosis factor in different animal models of inflammation" J. Lab. Clin. Med., 124, 813, (1994).
Female Balbic mice were anesthetized and injected subcutaneously with the test compounds dissolved in CMC vehicle or hydroxypropylmethyl cellulose based vehicle. Control animals received only the vehicle. After 1 h, LPS (50 μg/mouse, Sigma #13129, Sigma Chemical Co., St. Louis, Mo.) was injected intraperitoneally. After 1.5 h, blood was collected from the retro-rbital plexus region of the animals in a miicrotainer serum separator tube (Becton Dickinson, Cat. No. #5960, Becton Dickinson & Co., Franklin Lakes, N.J.). The sera was separated and the amount of TNF-α was determined using the EM-TNFA® kit (Endogen, Woburn, Mass.) by following the manufacturer's protocol.

Assay [1] has as its system TNF-α release from Human Monomac 6 cells. Kind of assay: Inhibition of TNF release in vitro, Monomac 6 cells, LPS/PMA. Type of assay: cell-based. Particulars: 2 h; for inhibition at 2 µM: MONO-MAC-6, 2 μM, read-out: TNF-α % inhibition, Conc. 2 μM; for inhibition at 10 µM: MONO-MAC-6, 10 μM, read-out: TNF-α % inhibition, Conc. 10 μM. As to the method:
The activity of compounds of this invention in inhibiting the TNF release was determined, using the a minor modification of the method described in Pradines-Figueres, A. and Raetz, C. R. H., J. Biol. Chem., 267 (32), 23261, (1992).
Human Monomac 6 cells (Ziegler-Heitbrock, H. W. L., et al., Int. J. Cancer, 41, 456, (1988)) were cultured at 37° C. in RPMI 1640 medium containing 10% fetal calf serum to a density of 1×10^5 cells/ml. 0.23 ml of these cells were placed in each well of a tissue culture plate and the cells were incubated for 15 min. The test compounds were dissolved in above mentioned medium and added and the incubation was continued for an additional 15 min. 10 μl of an lipopolysaccharide/phorbol-12-myristate-13-acetate (LPS/PMA) mixture was added such that the final concentration of lipopolysaccharide was 10 ng/ml and the final concentration of phorbol-12-myristate-13-acetate was 30 ng/ml. The cells were incubated for 2 h after which the plate was centrifuged and the medium was removed and analyzed for TNF content. The analysis was performed using a TNF Quantikine® Inmunoassay (R & D Systems, Minneapolis, Minn. 55413) by following the manufacturer's protocol.
The TNF-α inhibitory activity of test materials, i.e., the measure of the TNF-α content in the test group relative to the vehicle treated group (control group) was: […]

The target of another assay is Collagenase-III. Nature of the assay: MMP enzymatic assay, hydrolysis of MCA-Pro-Leu-Gly-Leu-DPA-Ala-Arg-NH2, Collagenase-III. The format is biochemical. Conditions: 37° C., pH 7.5, 2.5% DMSO. As to the method:
The propeptide and catalytic domain portion of human collagenase-3 was expressed in E. Coli as an N-terminal fusion protein with ubiquitin. After purification, the catalytic domain was released by treatment with 1 mM APMA for 1 hour at 37° C., and then purified by zinc chelate chromatography.
Rat collagenase-3 was purified in active form from the culture media of uterine smooth muscle cells as described in Roswit, W. T. et al., Arch. Biochem. Biophys., 225, 285-295 (1983).
The matrix metalloprotease inhibitory activity of compounds of this invention in vitro was determined based on the hydrolysis of MCA-Pro-Leu-Gly-Leu-DPA-Ala-Arg-NH2 (Bachem, Inc.) at 37° C. as described in Knight, C. G., et al., FEBS Lett., 296, 263-266 (1992).
The matrix metalloprotease enzyme was diluted with assay buffer (50 mM Tricine pH 7.5, 200 mM NaCl, 10 mM CaCl2, and 0.005% Brij-35) containing 10 μmole of above substrate dissolved in DMSO. Compounds of the invention dissolved in DMSO or only DMSO (control samples) were added such that the final DMSO concentration in all assays was 2.5%. The fluorescence changes were monitored with a Perkin-Elmer LS-50B flourimeter using an excitation wavelength of 328 nm and an emission wavelength of 393 nm.

In the assay on TNF-α, `CC(C)[C@@H](NS(=O)(=O)N1CCC(C(=O)c2ccc(Cl)cc2)CC1)C(=O)NO` [compound 134] yielded a TNF-α % inhibition of 42%.

In the case of `Cc1cc(C2=CCN(S(=O)(=O)N3CCN(C(=O)OCc4ccccc4)CC3C(=O)NO)CC2)ccc1F` (racemic) [compound 381, N-hydroxy-4-benzyloxycarbonyl-1-[4-(4-fluoro-3-methylphenyl)-1,2,3,6-tetrahydropyridine-1-sulfonyl]piperazine-2-(RS)-carboxamide], the inhibition at 2 µM in assay [1] was found to be 10%. On Collagenase-III, `CN(C)C(=O)N1CCN(S(=O)(=O)N2CCC(C(=O)c3ccc(Cl)cc3)CC2)[C@@H](C(=O)NO)C1` [compound 298, N-hydroxy-1-[4-(4-chlorobenzoyl)piperidine-1-sulfonyl]-4-(N,N-dimethylaminocarbonyl)piperazine-2-(R)-carboxamide] returned an IC50 of 0.2 nM. Moreover, the inhibition at 2 µM in assay [1] was 70%. `CC(C)[C@H](C(=O)NO)N(CCCc1cccnc1)S(=O)(=O)N1CCC(Oc2ccc(Br)cc2)CC1` [compound 105] registered a half-maximal inhibitory concentration (IC50) at Collagenase-III of 0.59 nM. In addition, the inhibition at 10 µM in assay [1] came to 20%. `CN(Cc1ccccc1)S(=O)(=O)N(CC(=O)O)Cc1ccccc1` [compound 430, 2-[benzyl-(benzylmethylaminosulfonyl)amino]acetic acid] registered an IC50 against Collagenase-III of 890 nM. Take `CN(Cc1ccccc1)S(=O)(=O)N(CC(=O)NO)Cc1ccccc1` [compound 355]: the IC50 at Collagenase-III is 56 nM. Further, the inhibition at 10 µM in assay [1] was below 15%.

`C[C@@H](NS(=O)(=O)N1CCC(c2cccc3ccccc23)CC1)C(=O)NO` [compound 216] displayed a TNF-α % inhibition in the assay with TNF-α of 41%. `C[C@@H](NS(=O)(=O)N1CC=C(c2ccc(Cl)cc2)CC1)C(=O)NO` [compound 401] displayed an IC50 against Collagenase-III of 0.19 nM. Further, in assay [1], the inhibition at 10 µM was 97%.

At Collagenase-III, `O=C(NO)C1CCCCN1S(=O)(=O)N1CCC(c2c[nH]c3cc(Cl)ccc23)CC1` (racemic) [compound 256, N-hydroxy-1-[4-(6-chloroindol-3-yl)piperidine-1-sulfonyl]piperidine-2-(RS)-carboxamide] registered an IC50 of 33 nM. Also, the inhibition at 10 µM in assay [1] came to 79%. In the case of `O=C(NO)C1CCCCN1S(=O)(=O)N1CC=C(c2ccc(Cl)cc2)CC1` (racemic) [compound 375, N-hydroxy-1-[4-(4-chlorophenyl)-1,2,3,6-tetrahydropyridine-1-sulfonyl]piperidine-2-(RS)-carboxamide], the inhibition at 2 µM in assay [1] came out at 85%. With `O=C(NO)[C@H]1CCCCN1S(=O)(=O)N1CCc2c([nH]c3ccccc23)C1` [compound 314, N-hydroxy-1-[1,2,3,4-tetrahydro-beta-carboline-2-sulfonyl]piperidine-2-(R)-carboxamide], in assay [1], the inhibition at 2 µM stood at 72%.

On to `CC(C)[C@@H](NS(=O)(=O)N1CCC(c2nc(-c3ccccc3)c[nH]2)CC1)C(=O)NO` [compound 133, N-hydroxy-2-(R)-{[4-(4-phenylirnidazol-2-yl)piperidine-1-sulfonyl]amino}-3-methylbutyramide], for which inhibition at Collagenase-III was half-maximal at 18 nM (IC50). For the same compound, in assay [1], the inhibition at 10 µM was 32%. In the assay on TNF-α, `O=C(NO)C1CCCCN1S(=O)(=O)N1CCCCC1` (racemic) [compound 233] gave a TNF-α % inhibition of 46%.

With `CN(C)C(=O)N1CCN(S(=O)(=O)N2CCC(c3ccc(F)cc3)CC2)[C@@H](C(=O)NO)C1` [compound 313, N-hydroxy-4-(N,N-dimethylaminocarbonyl)-1-[4-(4-fluorophenyl)piperidine-1-sulfonyl]piperazine-2-(R)-carboxamide], the inhibition at 2 µM in assay [1] was 73%. As to `COCCN(CC(=O)NO)S(=O)(=O)N1CCN(c2ccc(Cl)cc2)CC1` [compound 16], the IC50 against Collagenase-III is 21 nM. In assay [1], the inhibition at 10 µM is below 15%. Take `CN(C)S(=O)(=O)N1CCN(S(=O)(=O)N2CCC(C(=O)c3ccc(Cl)cc3)CC2)[C@@H](C(=O)NO)C1` [compound 315, N-hydroxy-1-[4-(4-chlorobenzoyl)piperidine-1-sulfonyl]-4-(N,N-dimethylaminosulfonyl)piperazine-2-(R)-carboxamide]: half-maximal inhibition at Collagenase-III (IC50) required 0.1 nM. Moreover, in assay [1], the inhibition at 2 µM is 86%.

`O=C(NO)C1(NS(=O)(=O)N2CCN(c3ccc(Cl)cc3)CC2)CCCCC1` [compound 345, N-hydroxy-1-{[4-(4-chlorophenyl)piperazine-1-sulfonyl]amino}-cyclohexane-1-carboxamide] displayed an IC50 at Collagenase-III of 6.6 nM.

On to `CC(C)[C@H](C(=O)NO)N(Cc1ccccc1)S(=O)(=O)N1CCCCC1` [compound 1, N-hydroxy-2-(R)-[benzyl-(piperidine-1-sulfonyl)amino]-3-methylbutyramide], for which the IC50 against Collagenase-III came out at 660 nM. In the case of `O=C(NO)C1CCCCN1S(=O)(=O)N1CCC(c2noc3cc(F)ccc23)CC1` (racemic) [compound 286, N-hydroxy-1-[4-(6-fluorobenzisoxazol-3-yl)piperidine-1-sulfonyl]piperidine-2-(RS)-carboxamide], the concentration for half-maximal inhibition (IC50) at Collagenase-III was 0.063 nM.

For the compound `Cc1cc(C2=CCN(S(=O)(=O)N3CCN(C(=O)OC(C)(C)C)CC3C(=O)NO)CC2)ccc1F` (racemic) [compound 384], the inhibition at 10 µM in assay [1] stood at 96%. `O=C(NO)C1CCCCN1S(=O)(=O)N1CCN(c2ccc(Cl)cc2)CC1` (racemic) [compound 234, N-hydroxy-1-[4-(4-chlorophenyl)piperazine-1-sulfonyl]piperidine-2-(RS)-carboxamide]: in the assay on TNF-α, the TNF-α % inhibition is listed as 46%. Regarding `C[C@@H](NS(=O)(=O)N1CCN(c2ccc(Cl)cc2)CC1)C(=O)O` [compound 414, 2-(R)-{[4-(4-chlorophenyl)piperazino-1-sulfonyl]amino}propionic acid], the midpoint of inhibition on Collagenase-III, the IC50, lay at 3400 nM.

The compound `C[C@H](C(=O)O)N(Cc1ccccc1)S(=O)(=O)NCc1ccccc1` [compound 431] returned an IC50 at Collagenase-III of 6500 nM. Compound `O=C(NO)C1CCCCN1S(=O)(=O)N1CCC(c2c[nH]c3ccc(F)cc23)CC1` (racemic) [compound 254, N-hydroxy-1-[4-(5-fluoroindol-3-yl)piperidine-1-sulfonyl]piperidine-2-(RS)-carboxamide] showed an IC50 against Collagenase-III of 181 nM. The inhibition at 10 µM in assay [1] stood at 94%. As for `O=C(NO)C(NS(=O)(=O)N1CC=C(c2ccc(Cl)cc2)CC1)c1ccc(F)cc1` (centres unmarked) [compound 409], the inhibition at 10 µM in assay [1] was found to be 86%. With `O=C(NO)[C@H](CSCc1ccccc1)NS(=O)(=O)N1CCN(c2ccc(Cl)cn2)CC1` [compound 102], half-maximal inhibition against Collagenase-III (IC50) required 0.92 nM. For the same compound, in assay [1], the inhibition at 10 µM was 56%. Consider `O=C(NO)C1(NS(=O)(=O)N2CCN(c3ccc(Cl)cn3)CC2)CCCCC1` [compound 342], for which 2.1 nM corresponded to half-maximal inhibition against Collagenase-III (IC50). For the compound `CC(=O)N1CCN(S(=O)(=O)N2CCC(C(=O)c3ccc(Cl)cc3)CC2)C(C(=O)NO)C1` (racemic) [compound 255, N-hydroxy-4-acetyl-1-[4-(4-chlorobenzoyl)piperidine-1-sulfonyl]piperazine-2-(RS)-carboxamide], half-maximal inhibition against Collagenase-III (IC50) required 0.19 nM. For the same compound, the inhibition at 10 µM in assay [1] was determined as 97%. `C[C@@H](NS(=O)(=O)N1CCN(C(=O)Nc2ccc(Cl)cc2)CC1)C(=O)NO` [compound 177, N-hydroxy-2-(R)-{[4-(4-chlorophenylaminocarbonyl)piperazine-1-sulfonyl]amino}propionamide] had an IC50 on Collagenase-III of 1.6 nM. In addition, the inhibition at 10 µM in assay [1] is below 15%.
